Assay results taken from PubChem BioAssay AID330 (DTP/NCI, 2004).
Values joined by “and” are separate entries in the source; they are usually repeats but may differ in a detail not shown here. Equal values may be shown once. Toxic doses and inconclusive results are not listed. Rule for the calls: active = survival T/C of 150% or more; inactive = T/C below 125% in these data. Peptide text beside a SMILES is read from it. * marks the point of attachment. Boc = CC(C)(C)OC(=O)*; NHNH2 = NN*

Tested on: P388 leukemia ip, CD2F1 mice, survival T/C
Test: NCI In Vivo Anticancer Drug Screen. Data for tumor model P388 Leukemia (intraperitoneal) in CD2F1 (CDF1) mice
Conditions: endpoint: median survival time, higher = longer survival
In short: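 Mice carrying the transplanted tumor received test compound or vehicle. Survival was recorded in each group, and the value is the treated-group measurement divided by that of the vehicle-treated control group.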

[1] = dose: 25.0 mg/kg/injection, schedule: Q01DX009 (ip), vehicle: saline with Tween-80
[2] = dose: 50.0 mg/kg/injection, schedule: Q01DX009 (ip), vehicle: saline with Tween-80
[3] = dose: 100.0 mg/kg/injection, schedule: Q01DX009 (ip), vehicle: saline with Tween-80
[4] = dose: 200.0 mg/kg/injection, schedule: Q01DX009 (ip), vehicle: saline with Tween-80
[5] = dose: 50.0 mg/kg/injection, schedule: Q01DX009 (ip), vehicle: Klucel (hydroxypropylcellulose) (HPC)
[6] = dose: 100.0 mg/kg/injection, schedule: Q01DX009 (ip), vehicle: Klucel (hydroxypropylcellulose) (HPC)
[7] = dose: 200.0 mg/kg/injection, schedule: Q01DX009 (ip), vehicle: Klucel (hydroxypropylcellulose) (HPC)
[8] = dose: 50.0 mg/kg/injection, schedule: Q01DX005 (ip), vehicle: saline with Tween-80
[9] = dose: 100.0 mg/kg/injection, schedule: Q01DX005 (ip), vehicle: saline with Tween-80

Measured: T/C

NC1=C(O)C(=O)C2(O1)C(=O)Nc1ccccc12 (stereo not drawn)
inactive: dose: 50.0 mg/kg/injection, schedule: Q01DX005 (ip), vehicle: Klucel (hydroxypropylcellulose) (HPC) 100 % of control | dose: 100.0 mg/kg/injection, schedule: Q01DX005 (ip), vehicle: Klucel (hydroxypropylcellulose) (HPC) 100 % of control | dose: 200.0 mg/kg/injection, schedule: Q01DX005 (ip), vehicle: Klucel (hydroxypropylcellulose) (HPC) 106 % of control

COc1ccc(C2=NC(c3ccccc3)NC(c3ccccc3)/C2=C/c2ccccc2)cc1 (stereo not drawn)
inactive: dose: 6.25 mg/kg/injection, schedule: Q01DX009 (ip), vehicle: saline with Tween-80 100 % of control | dose: 12.5 mg/kg/injection, schedule: Q01DX009 (ip), vehicle: saline with Tween-80 100 % of control | [1] 105 % of control | [2] 100 % of control

O=C1CC=C2C3CC4N(CCC45c4ccccc4N1C25)C/C3=C\CBr (stereo not drawn)
inactive: dose: 1.87 mg/kg/injection, schedule: Q01DX005 (ip), vehicle: Klucel (hydroxypropylcellulose) (HPC) 105 % of control | dose: 3.75 mg/kg/injection, schedule: Q01DX005 (ip), vehicle: Klucel (hydroxypropylcellulose) (HPC) 103 % of control | dose: 7.5 mg/kg/injection, schedule: Q01DX005 (ip), vehicle: Klucel (hydroxypropylcellulose) (HPC) 101 % of control and 105 % of control

CCCCCCCCCCCCCOCC(=O)OC
inactive: [2] 100 % of control | [3] 104 % of control | [4] 105 % of control

CCCCCCC1CC1C(=O)NCCCCCN=C(N)N (stereo not drawn)
inactive: dose: 7.5 mg/kg/injection, schedule: Q01DX009 (ip), vehicle: Klucel (hydroxypropylcellulose) (HPC) 100 % of control | dose: 15.0 mg/kg/injection, schedule: Q01DX009 (ip), vehicle: Klucel (hydroxypropylcellulose) (HPC) 100 % of control | dose: 30.0 mg/kg/injection, schedule: Q01DX009 (ip), vehicle: Klucel (hydroxypropylcellulose) (HPC) 107 % of control

O=S(=O)(O)c1ccc2c(N=Nc3ccccc3[As](=O)(O)O)c(O)c(S(=O)(=O)O)cc2c1
inactive: [2] 104 % of control | [3] 113 % of control

CC(C)CC(=O)CC(=O)C(C)(C)C.CC(C)CC(=O)CC(=O)C(C)(C)C.CC(C)CC(=O)CC(=O)C(C)(C)C.CC(C)CC(=O)CC(=O)C(C)(C)C.[Ce]
inactive: dose: 50.0 mg/kg/injection, schedule: Q01DX009 (ip), vehicle: distilled water + alcohol 106 % of control | dose: 100.0 mg/kg/injection, schedule: Q01DX009 (ip), vehicle: distilled water + alcohol 103 % of control | dose: 200.0 mg/kg/injection, schedule: Q01DX009 (ip), vehicle: distilled water + alcohol 106 % of control

Cc1cc(C)c(S(=O)(=O)Sc2nnnn2-c2ccccc2)c(C)c1
inactive: [5] 100 % of control | [6] 105 % of control | [7] 95 % of control

O=[N+]([O-])c1ccc(N/N=C\c2c(Cl)n(-c3ccccc3)c3ccccc23)cc1
inactive: dose: 100.0 mg/kg/injection, schedule: Q04DX003 (ip), vehicle: saline with Tween-80 93 % of control | dose: 200.0 mg/kg/injection, schedule: Q04DX003 (ip), vehicle: saline with Tween-80 90 % of control | dose: 400.0 mg/kg/injection, schedule: Q01DX001 (ip), vehicle: saline 95 % of control | dose: 400.0 mg/kg/injection, schedule: Q04DX003 (ip), vehicle: saline with Tween-80 91 % of control

C#CCC(B1OCCO1)B1OCCO1
inactive: dose: 25.0 mg/kg/injection, schedule: Q01DX001 (ip), vehicle: saline 100 % of control | dose: 50.0 mg/kg/injection, schedule: Q01DX001 (ip), vehicle: saline 90 % of control

CC1CN(c2ccc(Cl)cc2)CCOC(=O)O1 (stereo not drawn)
inactive: dose: 100.0 mg/kg/injection, schedule: Q01DX001 (ip), vehicle: saline with Tween-80 92 % of control | dose: 200.0 mg/kg/injection, schedule: Q01DX001 (ip), vehicle: saline with Tween-80 95 % of control | dose: 400.0 mg/kg/injection, schedule: Q01DX001 (ip), vehicle: saline with Tween-80 92 % of control

C[S+](C)CCO
inactive: dose: 50.0 mg/kg/injection, schedule: Q01DX009 (ip), vehicle: saline 100 % of control | dose: 100.0 mg/kg/injection, schedule: Q01DX009 (ip), vehicle: saline 102 % of control | dose: 200.0 mg/kg/injection, schedule: Q01DX009 (ip), vehicle: saline 98 % of control | dose: 400.0 mg/kg/injection, schedule: Q01DX009 (ip), vehicle: saline 95 % of control

CCS(=O)(=O)c1ccc(N2C(N)=NC(N)=NC2(C)C)cc1
inactive: dose: 6.25 mg/kg/injection, schedule: Q01DX005 (ip), vehicle: saline with Tween-80 103 % of control | dose: 12.5 mg/kg/injection, schedule: Q01DX005 (ip), vehicle: saline with Tween-80 100 % of control | dose: 25.0 mg/kg/injection, schedule: Q01DX005 (ip), vehicle: saline with Tween-80 103 % of control

COc1cc(OC)c(C(=O)CCl)c(O)c1Cl
inactive: [1] 113 % of control | dose: 66.0 mg/kg/injection, schedule: Q01DX009 (ip), vehicle: saline with Tween-80 110 % of control

c1ccc(N=C2SCCCS2)cc1
inactive: [5] 103 % of control | [6] 97 % of control | [7] 105 % of control

N#CN=[N+]([O-])c1ccc(Cl)cc1
inactive: dose: 3.12 mg/kg/injection, schedule: Q01DX009 (ip), vehicle: Klucel (hydroxypropylcellulose) (HPC) 107 % of control | dose: 6.25 mg/kg/injection, schedule: Q01DX009 (ip), vehicle: Klucel (hydroxypropylcellulose) (HPC) 114 % of control | dose: 6.25 mg/kg/injection, schedule: Q04DX003 (ip), vehicle: Klucel (hydroxypropylcellulose) (HPC) 97 % of control | dose: 12.5 mg/kg/injection, schedule: Q01DX009 (ip), vehicle: Klucel (hydroxypropylcellulose) (HPC) 98 % of control | dose: 12.5 mg/kg/injection, schedule: Q04DX003 (ip), vehicle: Klucel (hydroxypropylcellulose) (HPC) 95 % of control | dose: 25.0 mg/kg/injection, schedule: Q04DX003 (ip), vehicle: Klucel (hydroxypropylcellulose) (HPC) 98 % of control

COc1ccc2c(Cl)ccnc2c1OC
inactive: [8] 99 % of control | [9] 107 % of control

COc1ccccc1CNCCCCCCNCCSSCCNCCCCCCNCc1ccccc1OC
inactive: dose: 12.5 mg/kg/injection, schedule: Q04DX002 (ip), vehicle: suspension in saline 102 % of control | dose: 25.0 mg/kg/injection, schedule: Q04DX002 (ip), vehicle: suspension in saline 97 % of control

CC(C)(C)OC(=O)NC(Cc1c[nH]c2ccccc12)C(=O)NC(CS)C(=O)NN (stereo not drawn) (Boc-Trp-Cys-NHNH2; configuration not given here)
inactive: dose: 12.5 mg/kg/injection, schedule: Q01DX009 (ip), vehicle: other 90 % of control | dose: 25.0 mg/kg/injection, schedule: Q01DX009 (ip), vehicle: other 94 % of control | dose: 50.0 mg/kg/injection, schedule: Q01DX009 (ip), vehicle: other 88 % of control | dose: 100.0 mg/kg/injection, schedule: Q01DX009 (ip), vehicle: other 98 % of control | dose: 200.0 mg/kg/injection, schedule: Q01DX009 (ip), vehicle: other 94 % of control

O=C(S)c1ccc(Cl)c(Cl)c1
inactive: [8] 90 % of control | [9] 87 % of control | dose: 200.0 mg/kg/injection, schedule: Q01DX005 (ip), vehicle: saline with Tween-80 92 % of control

CN(C)c1c(Cl)c(=O)oc2c1ccc1nc(-c3ccccc3)ncc12
inactive: dose: 60.0 mg/kg/injection, schedule: Q01DX005 (ip), vehicle: saline with Tween-80 97 % of control | dose: 120.0 mg/kg/injection, schedule: Q01DX005 (ip), vehicle: saline with Tween-80 88 % of control

CCCCOC1OCN(CCCN(C)C)CC1(C)C (stereo not drawn)
inactive: [2] 108 % of control | [3] 122 % of control | [4] 122 % of control

OCC1(C2CCCNC2)OCCO1 (stereo not drawn)
inactive: dose: 25.0 mg/kg/injection, schedule: Q01DX005 (ip), vehicle: saline 100 % of control | dose: 50.0 mg/kg/injection, schedule: Q01DX005 (ip), vehicle: saline 111 % of control and 97 % of control | dose: 100.0 mg/kg/injection, schedule: Q01DX005 (ip), vehicle: saline 107 % of control | dose: 200.0 mg/kg/injection, schedule: Q01DX005 (ip), vehicle: saline 108 % of control

CC(C)(C)c1cc(C(=O)O)c(SSc2ccccc2)c(C(=O)O)c1
inactive: dose: 100.0 mg/kg/injection, schedule: Q04DX002 (ip), vehicle: Klucel (hydroxypropylcellulose) (HPC) 105 % of control

Cc1ccc(S(=O)(=O)N2CCCN(S(=O)(=O)c3ccc(C)cc3)CCSCCCSCC2)cc1
inactive: [1] 98 % of control | [2] 87 % of control

CNc1ccc([N+](=O)[O-])cc1/C([O-])=C\[S+](C)(C)=O
inactive: dose: 100.0 mg/kg/injection, schedule: Q04DX003 (ip), vehicle: saline 97 % of control | dose: 200.0 mg/kg/injection, schedule: Q04DX003 (ip), vehicle: saline 106 % of control | dose: 400.0 mg/kg/injection, schedule: Q04DX003 (ip), vehicle: saline 97 % of control
